Assay results published in patent US10597388B2, “Pyridazinone herbicides” (FMC CORPORATION, priority 2014, dated 2020).

What was measured:
Assay in all cases: Test C greenhouse herbicide test, pre- and postemergence
Assay type in all cases: in vivo
[1] = test system: crabgrass, large (large crabgrass, Digitaria sanguinalis)
From the text: (§1) Seeds of plant species selected from blackgrass (Alopecurus myosuroides), ryegrass, Italian (Italian ryegrass, Lolium multiflorum), wheat (winter wheat, Triticum aestivum), galium (catchweed bedstraw, Galium aparine), corn (Zea mays), large crabgrass, large (large crabgrass, Digitaria sanguinalis), foxtail, giant (giant foxtail, Setaria faberii), johnsongrass (Sorghum halepense), lambsquarters (Chenopodium album), morningglory (Ipomoea coccinea), nutsedge, yellow (yellow nutsedge, Cyperus esculentus), pigweed (Amaranthus retroflexus), ragweed (common ragweed, Ambrosia elatior), soybean (Glycine max), barnyardgrass (Echinochloa crus-galli), oilseed rape (Brassica napus), waterhemp (common waterhemp, Amaranthus rudis), and velvetleaf (Abutilon theophrasti) were planted into a blend of loam soil and sand and treated preemergence with test chemicals formulated in a non-phytotoxic solvent mixture which included a surfactant.
(§2) At the same time, plants selected from these crop and weed species and also chickweed (common chickweed, Stellaria media), kochia (Kochia scoparia), and oat, wild (wild oat, Avena fatua), were planted in pots containing Redi-Earth® planting medium (Scotts Company, 14111 Scottslawn Road, Marysville, Ohio 43041) comprising spaghnum peat moss, vermiculite, wetting agent and starter nutrients and treated with postemergence applications of test chemicals formulated in the same manner. Plants ranged in height from 2 to 18 cm (1- to 4-leaf stage) for postemergence treatments. Treated plants and controls were maintained in a greenhouse for 13 to 15 d, after which time all species were compared to controls and visually evaluated. Plant response ratings, summarized in Table C, are based on a scale of 0 to 100 where 0 is no effect and 100 is complete control. A dash (-) response means no test result.

[2] = test system: galium (catchweed bedstraw, Galium aparine)
From the text: as §1, §2

[3] = test system: ryegrass, Italian (Italian ryegrass, Lolium multiflorum)
From the text: as §1, §2

[4] = test system: barnyardgrass (Echinochloa crus-galli)
From the text: as §1, §2

[5] = test system: oilseed rape (Brassica napus)
From the text: as §1, §2

[6] = test system: morningglory (Ipomoea coccinea)
From the text: as §1, §2

[7] = test system: foxtail, giant (giant foxtail, Setaria faberii)
From the text: as §1, §2

[8] = test system: ragweed (common ragweed, Ambrosia elatior)
From the text: as §1, §2

[9] = test system: lambsquarters (Chenopodium album)
From the text: as §1, §2

[10] = test system: wheat (winter wheat, Triticum aestivum)
From the text: as §1, §2

[11] = test system: johnsongrass (Sorghum halepense)
From the text: as §1, §2

[12] = Postemergence, 31 g ai/ha, 0 to 100 scale (0 no effect, 100 complete control)
[13] = Postemergence, 125 g ai/ha, scale 0 to 100, 0 is no effect, 100 is complete control
[14] = Postemergence, 250 g ai/ha, scale 0 to 100, 0 no effect, 100 complete control, 13 to 15 d
[15] = Preemergence, 31 g ai/ha, scale 0 to 100, 0 is no effect, 100 is complete control
[16] = Preemergence, 62 g ai/ha, scale 0 to 100, 0 is no effect, 100 is complete control
[17] = Preemergence, 125 g ai/ha, scale 0 to 100, 0 is no effect, 100 is complete control
[18] = Preemergence, 250 g ai/ha, scale 0 to 100, 0 no effect, 100 complete control
[19] = postemergence, 62 g ai/ha, scale 0 to 100, 0 no effect, 100 complete control

`Cc1cc(C)c2sc(C)c(-c3c(O)c(C)nn(C)c3=O)c2c1` [Compound 2, 5-hydroxy-2,6-dimethyl-4-(2,5,7-trimethylbenzo[b]thien-3-yl)-3(2H)-pyridazinone] was tested, and the “Crabgrass, Large plant response rating” value [1, 12] was 10, the “Plant response rating, Crabgrass, Large” value [1, 13] was 15 and the “Plant response rating, Crabgrass, Large” value [1, 14] was 10. For the same molecule, the “Plant response rating, Crabgrass, Large” value [1, 15] was 55, the “Plant response rating, Crabgrass, Large” value [1, 16] was 55 and the “Plant response rating, Crabgrass, Large” value [1, 17] was 98. The “Crabgrass, Large plant response rating” value [1, 18] was 95, the “Crabgrass, Large plant response rating” value [1, 19] was 15 and the “Galium plant response rating” value [2, 12] was 95. The “Plant response rating, Galium” value [2, 13] was 98, the “Plant response rating, Galium” value [2, 14] was 98 and the “Plant response rating, Galium” value [2, 15] was 95. The “Plant response rating, Galium” value [2, 16] was 100, the “Plant response rating, Galium” value [2, 17] was 100 and the “Galium plant response rating” value [2, 18] was 100. For the same molecule, the “Galium plant response rating” value [2, 19] was 95, the “Ryegrass, Italian plant response rating” value [3, 12] was 60 and the “Plant response rating, Ryegrass, Italian” value [3, 13] was 85. For the same molecule, the “Plant response rating, Ryegrass, Italian” value [3, 14] was 90, the “Plant response rating, Ryegrass, Italian” value [3, 15] was 95 and the “Plant response rating, Ryegrass, Italian” value [3, 16] was 98. For the same molecule, the “Plant response rating, Ryegrass, Italian” value [3, 17] was 98, the “Ryegrass, Italian plant response rating” value [3, 18] was 98 and the “Ryegrass, Italian plant response rating” value [3, 19] was 75. The “Barnyardgrass plant response rating” value [4, 12] was 10, the “Plant response rating, Barnyardgrass” value [4, 13] was 15 and the “Plant response rating, Barnyardgrass” value [4, 14] was 20. The “Plant response rating, Barnyardgrass” value [4, 15] was 35, the “Plant response rating, Barnyardgrass” value [4, 16] was 70 and the “Plant response rating, Barnyardgrass” value [4, 17] was 95. The “Barnyardgrass plant response rating” value [4, 18] was 98, the “Barnyardgrass plant response rating” value [4, 19] was 10 and the “Oilseed Rape plant response rating” value [5, 12] was 65. The “Plant response rating, Oilseed Rape” value [5, 13] was 70, the “Plant response rating, Oilseed Rape” value [5, 14] was 75 and the “Plant response rating, Oilseed Rape” value [5, 15] was 0. For the same molecule, the “Plant response rating, Oilseed Rape” value [5, 16] was 20, the “Plant response rating, Oilseed Rape” value [5, 17] was 65 and the “Oilseed Rape plant response rating” value [5, 18] was 65. For the same molecule, the “Oilseed Rape plant response rating” value [5, 19] was 70, the “Morningglory plant response rating” value [6, 12] was 100 and the “Plant response rating, Morningglory” value [6, 13] was 100. For the same molecule, the “Plant response rating, Morningglory” value [6, 14] was 100, the “Plant response rating, Morningglory” value [6, 15] was 98 and the “Plant response rating, Morningglory” value [6, 16] was 100. The “Plant response rating, Morningglory” value [6, 17] was 98, the “Morningglory plant response rating” value [6, 18] was 100 and the “Morningglory plant response rating” value [6, 19] was 100. The “Foxtail, Giant plant response rating” value [7, 12] was 20, the “Plant response rating, Foxtail, Giant” value [7, 13] was 90 and the “Plant response rating, Foxtail, Giant” value [7, 14] was 95. The “Plant response rating, Foxtail, Giant” value [7, 15] was 80, the “Plant response rating, Foxtail, Giant” value [7, 16] was 100 and the “Plant response rating, Foxtail, Giant” value [7, 17] was 98. For the same molecule, the “Foxtail, Giant plant response rating” value [7, 18] was 100, the “Foxtail, Giant plant response rating” value [7, 19] was 65 and the “Ragweed plant response rating” value [8, 12] was 80. The “Plant response rating, Ragweed” value [8, 13] was 95, the “Plant response rating, Ragweed” value [8, 14] was 98 and the “Plant response rating, Ragweed” value [8, 15] was 65. The “Plant response rating, Ragweed” value [8, 16] was 100, the “Plant response rating, Ragweed” value [8, 17] was 100 and the “Ragweed plant response rating” value [8, 18] was 98. The “Ragweed plant response rating” value [8, 19] was 80, the “Lambsquarters plant response rating” value [9, 12] was 85 and the “Plant response rating, Lambsquarters” value [9, 13] was 98. The “Plant response rating, Lambsquarters” value [9, 14] was 100, the “Plant response rating, Lambsquarters” value [9, 15] was 100 and the “Plant response rating, Lambsquarters” value [9, 16] was 100. For the same molecule, the “Plant response rating, Lambsquarters” value [9, 17] was 100, the “Lambsquarters plant response rating” value [9, 18] was 100 and the “Lambsquarters plant response rating” value [9, 19] was 85. For the same molecule, the “Wheat plant response rating” value [10, 12] was 0, the “Plant response rating, Wheat” value [10, 13] was 5 and the “Plant response rating, Wheat” value [10, 14] was 5. The “Plant response rating, Wheat” value [10, 16] was 0, the “Plant response rating, Wheat” value [10, 17] was 0 and the “Wheat plant response rating” value [10, 18] was 10. For the same molecule, the “Wheat plant response rating” value [10, 19] was 0, the “Johnsongrass plant response rating” value [11, 12] was 5 and the “Plant response rating, Johnsongrass” value [11, 13] was 5. For the same molecule, the “Plant response rating, Johnsongrass” value [11, 14] was 5, the “Plant response rating, Johnsongrass” value [11, 15] was 0 and the “Plant response rating, Johnsongrass” value [11, 16] was 0. For the same molecule, the “Plant response rating, Johnsongrass” value [11, 17] was 5, the “Johnsongrass plant response rating” value [11, 18] was 5 and the “Johnsongrass plant response rating” value [11, 19] was 5.
